Data as given in ChEMBL document CHEMBL1201862, “PubChem BioAssay data set” (2004).
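The compound was tested at five concentrations on cells cultured in 96-well plates, with a 48-hour exposure period. Here, GI50 denotes the concentration required for 50% inhibition of growth.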 Active and inactive are the calls of the source. Rule as the data show it: active = GI50 up to about 1.1 µM and inactive = higher.

Experiments:
Test in all cases: inhibition of tumour cell growth, NCI panel, 48 h
786-0 = test system: 786-0
A498 = test system: A498
A549 = test system: A549
BT-549 = test system: BT-549
HCC 2998 = test system: HCC 2998
HOP-62 = test system: HOP-62
HT-29 = test system: HT-29
KM12 = test system: KM12
LOX IMVI = test system: LOX IMVI
MCF7 = test system: MCF7
NCI-H226 = test system: NCI-H226
OVCAR-4 = test system: OVCAR-4
PC-3 = test system: PC-3
SK-MEL-2 = test system: SK-MEL-2
SK-MEL-5 = test system: SK-MEL-5
SK-OV-3 = test system: SK-OV-3
SN12C = test system: SN12C
SNB-19 = test system: SNB-19
SW-620 = test system: SW-620
U-251 = test system: U-251

| SMILES | GI50 (786-0) | GI50 (A498) | GI50 (A549) | GI50 (BT-549) | GI50 (HCC 2998) | GI50 (HOP-62) | GI50 (HT-29) | GI50 (KM12) | GI50 (LOX IMVI) | GI50 (MCF7) | GI50 (NCI-H226) | GI50 (OVCAR-4) | GI50 (PC-3) | GI50 (SK-MEL-2) | GI50 (SK-MEL-5) | GI50 (SK-OV-3) | GI50 (SN12C) | GI50 (SNB-19) | GI50 (SW-620) | GI50 (U-251) |
| --- | --- | --- | --- | --- | --- | --- | --- | --- | --- | --- | --- | --- | --- | --- | --- | --- | --- | --- | --- | --- |
| N#Cc1c(N)[nH]c2ccc(Sc3ccccc3)cc12 | 0.152 µM (active) | 0.196 µM (active) | 0.282 µM (active) | 1.16 µM (inactive) | 0.516 µM (active) | 0.456 µM (active) | 0.21 µM (active) | 0.113 µM (active) | 0.213 µM (active) | < 0.0711 µM (active) | 0.457 µM (active) | 0.675 µM (active) | 0.275 µM (active) | 0.338 µM (active) | 0.145 µM (active) | 0.53 µM (active) | 0.574 µM (active) | 0.46 µM (active) | 0.121 µM (active) | 0.297 µM (active) |
| CCCCN1C(=O)c2c(Br)sc(Br)c2C1=O | 37 µM (inactive) | 50.6 µM (inactive) | 25.8 µM (inactive) | 61.9 µM (inactive) | 33.8 µM (inactive) | 26.6 µM (inactive) | 23.3 µM (inactive) | 25.1 µM (inactive) | 32.6 µM (inactive) | 20.2 µM (inactive) | 51.1 µM (inactive) | 25.7 µM (inactive) | 28.8 µM (inactive) | 46 µM (inactive) | 39.5 µM (inactive) | 37.6 µM (inactive) | 34.5 µM (inactive) | 51.5 µM (inactive) | 24.8 µM (inactive) | 39.1 µM (inactive) |
| O=[N+]([O-])c1c(F)c(F)c2c(c1F)Nc1ccccc1S2 | 8.24 µM (inactive) | 16.4 µM (inactive) | 19.2 µM (inactive) | 11 µM (inactive) | 2.76 µM (inactive) | 12.6 µM (inactive) | 2.07 µM (inactive) | 4.49 µM (inactive) | 1.86 µM (inactive) | 5 µM (inactive) | 16.9 µM (inactive) | 2.58 µM (inactive) | 9.16 µM (inactive) | 2.14 µM (inactive) | 11.6 µM (inactive) | 18.2 µM (inactive) | 3.38 µM (inactive) | 7.23 µM (inactive) | 2.77 µM (inactive) | 2.05 µM (inactive) |
| CCCCCCCCCCCCCCCCCCOC(COP(=O)(O)OCC1OC(n2cc(F)c(=O)[nH]c2=O)CC1O)COP(=O)(O)OCC1OC(n2ccc(N)nc2=O)C(O)C1O (stereo not given) | 2.82 µM (inactive) | 0.485 µM (active) | 2.81 µM (inactive) | 18.5 µM (inactive) | 0.419 µM (active) | 1.95 µM (inactive) | 18.2 µM (inactive) | 59.2 µM (inactive) | 1.14 µM (inactive) | 2.37 µM (inactive) | > 87.1 µM (inactive) | 47.1 µM (inactive) | 15.6 µM (inactive) | > 67 µM (inactive) | > 73.5 µM (inactive) | > 71.3 µM (inactive) | 23.9 µM (inactive) | 6.46 µM (inactive) | 60.7 µM (inactive) | 7.13 µM (inactive) |
| CCCCCCOc1ccc(C(=O)NO)cc1 | 3.68 µM (inactive) | 13 µM (inactive) | 14.3 µM (inactive) | 15.8 µM (inactive) | 9.25 µM (inactive) | 11.8 µM (inactive) | 7.57 µM (inactive) | 11.9 µM (inactive) | 2.17 µM (inactive) | 25.8 µM (inactive) | 9.46 µM (inactive) | 5.74 µM (inactive) | 9.51 µM (inactive) | 12.4 µM (inactive) | 15.7 µM (inactive) | 10.5 µM (inactive) | 10.2 µM (inactive) | 17.8 µM (inactive) | 5.02 µM (inactive) | 10.4 µM (inactive) |
| O=c1c2cc([N+](=O)[O-])ccc2n2n1Cc1ccccc1CC2 | > 100 µM (inactive) | > 100 µM (inactive) | > 100 µM (inactive) | > 100 µM (inactive) | > 100 µM (inactive) | > 100 µM (inactive) | > 100 µM (inactive) | > 100 µM (inactive) | > 100 µM (inactive) | > 100 µM (inactive) | > 100 µM (inactive) | > 100 µM (inactive) | > 100 µM (inactive) | > 100 µM (inactive) | > 100 µM (inactive) | > 100 µM (inactive) | > 100 µM (inactive) | > 100 µM (inactive) | > 100 µM (inactive) | > 100 µM (inactive) |
| CCCC1=C(OC)C(=O)c2c(C)cc(Cl)nc2C1=O | 2.37 µM (inactive) | 20.2 µM (inactive) | 13.6 µM (inactive) | 13.6 µM (inactive) | 7.62 µM (inactive) | 15.5 µM (inactive) | 4.3 µM (inactive) | 7.29 µM (inactive) | 2.01 µM (inactive) | 2.47 µM (inactive) | 16.7 µM (inactive) | 6.37 µM (inactive) | 9.08 µM (inactive) | 10.5 µM (inactive) | 4.06 µM (inactive) | 17 µM (inactive) | 4.14 µM (inactive) | 14.7 µM (inactive) | 3.24 µM (inactive) | 6.07 µM (inactive) |
| CC1=NNC(=O)[C@H]2[C@H]1CCC1[C@@H]2CC[C@]2(C)[C@@H](O)CC[C@@H]12 (stereo not given in full) | > 100 µM (inactive) | > 100 µM (inactive) | > 100 µM (inactive) | > 100 µM (inactive) | > 100 µM (inactive) | > 100 µM (inactive) | > 100 µM (inactive) | > 100 µM (inactive) | > 100 µM (inactive) | > 100 µM (inactive) | > 100 µM (inactive) | > 100 µM (inactive) | > 100 µM (inactive) | > 100 µM (inactive) | > 100 µM (inactive) | > 100 µM (inactive) | > 100 µM (inactive) | > 100 µM (inactive) | > 100 µM (inactive) | > 100 µM (inactive) |
| CN(C)/C=N/S(=O)(=O)c1nn2c(C=O)c(-c3ccc(-c4ccccc4)cc3)nc2s1 | 0.927 µM (active) | 21.3 µM (inactive) | 11.5 µM (inactive) | 0.83 µM (active) | 6 µM (inactive) | 8.61 µM (inactive) | 0.347 µM (active) | 2.48 µM (inactive) | 0.753 µM (active) | 0.838 µM (active) | 13.3 µM (inactive) | 1.96 µM (inactive) | 2 µM (inactive) | 2.69 µM (inactive) | 1.61 µM (inactive) | 15.1 µM (inactive) | 1.97 µM (inactive) | 11.9 µM (inactive) | 0.724 µM (active) | 2.01 µM (inactive) |
| CCCCCCCCCCCCCCCCCCNc1ccn(C2OC(COP(=O)(O)OCC3OC(n4cc(F)c(NCCCCCCCCCCCCCCCCCC)nc4=O)CC3O)C(O)C2O)c(=O)n1 (stereo not given) | > 100 µM (inactive) | 25.8 µM (inactive) | 82.8 µM (inactive) | > 100 µM (inactive) | 63.5 µM (inactive) | > 100 µM (inactive) | > 100 µM (inactive) | > 100 µM (inactive) | > 100 µM (inactive) | > 100 µM (inactive) | > 100 µM (inactive) | > 100 µM (inactive) | 56.8 µM (inactive) | > 100 µM (inactive) | > 100 µM (inactive) | > 100 µM (inactive) | > 100 µM (inactive) | 66.8 µM (inactive) | > 100 µM (inactive) | 67 µM (inactive) |
| CC(=O)OC(Cc1cc(C=C(C(F)(F)F)C(F)(F)F)cc(C)n1)(C(F)(F)F)C(F)(F)F | 0.839 µM (active) | 1.75 µM (inactive) | 2.88 µM (inactive) | 1.77 µM (inactive) | 5.2 µM (inactive) | 1.79 µM (inactive) | 0.55 µM (active) | 1.55 µM (inactive) | 1.14 µM (inactive) | 0.14 µM (active) | 1.78 µM (inactive) | 1.72 µM (inactive) | 1.77 µM (inactive) | 2.1 µM (inactive) | 1.49 µM (inactive) | 19.5 µM (inactive) | 1.44 µM (inactive) | 1.88 µM (inactive) | 1.28 µM (inactive) | 1.55 µM (inactive) |
| CC[C@@]1(O)C(=O)OCc2c1cc1n(c2=O)Cc2c-1nc1ccccc1c2/C=N\NC(=O)C1CCCN1 (stereo not given in full) | 0.0461 µM (active) | 0.435 µM (active) | 0.826 µM (active) | 1.49 µM (inactive) | 1.98 µM (inactive) | < 0.0196 µM (active) | 1.15 µM (inactive) | 3.11 µM (inactive) | 0.09 µM (active) | < 0.0177 µM (active) | 0.117 µM (active) | 19.6 µM (inactive) | 2.47 µM (inactive) | 11.8 µM (inactive) | 0.238 µM (active) | 0.442 µM (active) | 0.0275 µM (active) | < 0.0209 µM (active) | 0.185 µM (active) | 0.0362 µM (active) |
| Nc1nc(=S)n(-c2ccc(Cl)cc2)c2nc3ccccc3cc12 | 53.3 µM (inactive) | > 100 µM (inactive) | 97.7 µM (inactive) | 19.1 µM (inactive) | 64.6 µM (inactive) | 55.8 µM (inactive) | 79.6 µM (inactive) | 29.3 µM (inactive) | 44.1 µM (inactive) | 15.4 µM (inactive) | 50.6 µM (inactive) | 46.7 µM (inactive) | 46.8 µM (inactive) | 49.7 µM (inactive) | 51.8 µM (inactive) | 22.7 µM (inactive) | > 100 µM (inactive) | > 100 µM (inactive) | 95.5 µM (inactive) | 48.9 µM (inactive) |
| O=C(O)/C=C/c1c2ccc(=O)c(O)c-2oc2c(O)c(O)ccc12 | 18.9 µM (inactive) | > 100 µM (inactive) | 32.3 µM (inactive) | 83.9 µM (inactive) | > 100 µM (inactive) | 23.4 µM (inactive) | 63.7 µM (inactive) | 25.3 µM (inactive) | 23 µM (inactive) | 17.2 µM (inactive) | 70.8 µM (inactive) | 30.3 µM (inactive) | > 100 µM (inactive) | 55.1 µM (inactive) | 54 µM (inactive) | 98.4 µM (inactive) | 15.3 µM (inactive) | > 100 µM (inactive) | 20.7 µM (inactive) | 16.1 µM (inactive) |
